Tests used:
U-937 [1] = test: Induction of cell cycle arrest in human U-937 cells assessed as accumulation of cells in pre-G1 phase at 5 uM for 24 hrs by PI staining based flow cytometric analysis; format: functional
HL-60 = test: Antiproliferative activity against human HL-60 cells incubated for 48 hrs; format: functional, cell-based; conditions: HL-60, 48 h
MV4-11 = test: Antiproliferative activity against human MV4-11 cells incubated for 48 hrs; format: functional, cell-based; conditions: MV4-11, 48 h
Histone deacetylase 3 = Histone deacetylase 3 (Homo sapiens, UniProt O15379)
[2] = target: T1, Polyamine deacetylase HDAC10 (Homo sapiens, UniProt Q969S8)
T1 sequence (Q969S8 whole entry): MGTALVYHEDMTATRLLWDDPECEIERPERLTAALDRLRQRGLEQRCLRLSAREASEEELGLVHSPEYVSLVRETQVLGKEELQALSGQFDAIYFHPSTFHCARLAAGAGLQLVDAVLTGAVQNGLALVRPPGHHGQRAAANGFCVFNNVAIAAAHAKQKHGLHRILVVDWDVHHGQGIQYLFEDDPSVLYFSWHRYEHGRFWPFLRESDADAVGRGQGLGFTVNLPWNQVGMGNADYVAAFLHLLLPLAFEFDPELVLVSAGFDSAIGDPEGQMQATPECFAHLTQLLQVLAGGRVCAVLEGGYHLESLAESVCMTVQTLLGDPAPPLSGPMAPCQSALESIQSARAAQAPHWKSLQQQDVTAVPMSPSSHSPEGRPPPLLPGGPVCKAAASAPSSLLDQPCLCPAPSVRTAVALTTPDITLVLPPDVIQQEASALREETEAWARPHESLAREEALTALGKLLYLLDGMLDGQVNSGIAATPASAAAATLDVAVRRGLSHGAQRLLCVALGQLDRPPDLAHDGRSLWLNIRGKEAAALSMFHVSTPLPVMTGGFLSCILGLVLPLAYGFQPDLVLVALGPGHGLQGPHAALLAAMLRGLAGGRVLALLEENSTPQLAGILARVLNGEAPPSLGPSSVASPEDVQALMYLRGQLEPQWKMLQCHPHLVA

U-937 [3] = test: Antiproliferative activity against human U-937 cells incubated for 48 hrs; format: functional, cell-based; conditions: U-937, 48 h
K562 [4] = test: cells; format: functional, cell-based; conditions: Homo sapiens, K562, 72 h
Histone deacetylase 11 = target: T2, Histone deacetylase 11 (Homo sapiens, UniProt Q96DB2)
T2 sequence (Q96DB2 whole entry): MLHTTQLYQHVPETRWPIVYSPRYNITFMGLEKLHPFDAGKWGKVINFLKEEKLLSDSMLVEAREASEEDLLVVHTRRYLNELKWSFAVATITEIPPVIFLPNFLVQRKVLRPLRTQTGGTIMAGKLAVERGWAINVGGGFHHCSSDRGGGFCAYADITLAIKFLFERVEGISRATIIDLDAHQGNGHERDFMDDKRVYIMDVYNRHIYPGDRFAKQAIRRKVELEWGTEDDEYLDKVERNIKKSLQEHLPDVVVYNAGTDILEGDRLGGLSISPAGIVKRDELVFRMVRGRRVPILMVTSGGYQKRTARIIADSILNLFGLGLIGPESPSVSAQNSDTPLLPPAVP

Histone deacetylase 2 = Histone deacetylase 2 (Homo sapiens, UniProt Q92769)
HCT-116 = test: cells; format: functional, cell-based; conditions: Homo sapiens, HCT-116, 72 h
Histone deacetylase 8 = target: T3, Histone deacetylase 8 (Homo sapiens, UniProt Q9BY41)
T3 sequence (Q9BY41 whole entry): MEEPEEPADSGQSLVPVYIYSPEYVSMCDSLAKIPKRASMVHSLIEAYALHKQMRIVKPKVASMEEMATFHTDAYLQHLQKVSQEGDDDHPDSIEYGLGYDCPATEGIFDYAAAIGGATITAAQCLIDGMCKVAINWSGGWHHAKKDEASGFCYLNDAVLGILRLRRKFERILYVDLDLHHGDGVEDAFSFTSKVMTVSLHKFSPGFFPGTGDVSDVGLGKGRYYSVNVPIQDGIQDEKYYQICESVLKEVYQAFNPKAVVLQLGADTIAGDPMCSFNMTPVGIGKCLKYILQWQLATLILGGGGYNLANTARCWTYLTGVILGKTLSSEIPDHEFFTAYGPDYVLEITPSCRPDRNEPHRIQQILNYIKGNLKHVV

Histone deacetylase 9 = Histone deacetylase 9 (Homo sapiens, UniProt Q9UKV0)
K562 [5] = test: Potency index, ratio of SAHA IC50 to test compound IC50 for antiproliferative activity against human K562 cell; format: functional
NB-4 = test: Antiproliferative activity against human NB4 cells incubated for 48 hrs; format: functional, cell-based; conditions: NB-4, 48 h
OCI-AML2 = test: Antiproliferative activity against human OCI-AML2 cells incubated for 48 hrs; format: functional, cell-based; conditions: OCI-AML2, 48 h
Histone deacetylase 5 = Histone deacetylase 5 (Homo sapiens, UniProt Q9UQL6); conditions: read-out: IC50
Histone deacetylase 1 = Histone deacetylase 1 (Homo sapiens, UniProt Q13547)
Kasumi 1 = test: Antiproliferative activity against human Kasumi 1 cells incubated for 48 hrs; format: functional, cell-based; conditions: Kasumi 1, 48 h
Histone deacetylase 7 = target: T4, Histone deacetylase 7 (Homo sapiens, UniProt Q8WUI4)
T4 sequence (Q8WUI4 whole entry): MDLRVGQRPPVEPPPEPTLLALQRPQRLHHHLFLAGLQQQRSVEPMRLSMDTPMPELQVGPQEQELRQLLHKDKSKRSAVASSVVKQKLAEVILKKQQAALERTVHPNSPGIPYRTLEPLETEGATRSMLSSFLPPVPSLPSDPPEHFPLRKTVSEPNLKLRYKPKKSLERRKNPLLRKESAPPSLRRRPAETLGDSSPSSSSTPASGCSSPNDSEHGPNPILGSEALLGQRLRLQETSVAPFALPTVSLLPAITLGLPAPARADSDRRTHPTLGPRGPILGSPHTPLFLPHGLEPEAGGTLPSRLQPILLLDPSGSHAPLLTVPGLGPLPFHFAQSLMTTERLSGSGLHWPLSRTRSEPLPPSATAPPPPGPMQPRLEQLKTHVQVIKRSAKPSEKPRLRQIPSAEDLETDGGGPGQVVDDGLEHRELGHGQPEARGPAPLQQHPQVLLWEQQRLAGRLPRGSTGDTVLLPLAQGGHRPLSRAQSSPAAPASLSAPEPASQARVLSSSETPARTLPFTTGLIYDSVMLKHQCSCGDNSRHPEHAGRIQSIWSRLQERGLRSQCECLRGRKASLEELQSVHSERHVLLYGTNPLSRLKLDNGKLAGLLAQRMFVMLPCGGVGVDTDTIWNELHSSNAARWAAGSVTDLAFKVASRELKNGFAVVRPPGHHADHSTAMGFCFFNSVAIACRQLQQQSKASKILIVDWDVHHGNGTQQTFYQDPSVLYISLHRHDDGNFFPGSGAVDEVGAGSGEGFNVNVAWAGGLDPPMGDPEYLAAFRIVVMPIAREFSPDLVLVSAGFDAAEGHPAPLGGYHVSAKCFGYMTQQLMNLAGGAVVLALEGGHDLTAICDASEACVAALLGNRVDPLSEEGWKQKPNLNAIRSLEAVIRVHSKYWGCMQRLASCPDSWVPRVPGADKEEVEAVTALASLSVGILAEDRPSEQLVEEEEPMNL

OCI-AML-3 = test: Antiproliferative activity against human OCI-AML-3 cells incubated for 48 hrs; format: functional, cell-based; conditions: OCI-AML-3, 48 h
KARPAS-299 = test: Antiproliferative activity against human KARPAS-299 cells incubated for 48 hrs; format: functional, cell-based; conditions: KARPAS-299, 48 h
U-937 [6] = test: Induction of cell cycle arrest in human U-937 cells assessed as accumulation of cells in pre-G1 phase at 1 uM for 48 hrs by PI staining based flow cytometric analysis; format: functional
A549 = test: cells; format: functional, cell-based; conditions: Homo sapiens, A549, 72 h
U-937 [7] = test: Induction of cell cycle arrest in human U-937 cells assessed as accumulation of cells in G1 phase at 1 to 5 uM for 48 hrs by PI staining based flow cytometric analysis; format: functional; conditions: dose 1-5 µM
[8] = Antiproliferative activity against human IMS-M2 cells incubated for 48 hrs; format: functional, cell-based; conditions: IMS-M2, 48 h
U-937 [9] = test: Induction of cell cycle arrest in human U-937 cells assessed as accumulation of cells in G2/M phase at 1 uM for 24 hrs by PI staining based flow cytometric analysis; format: functional
[10] = target: T5, Protein deacetylase HDAC6 (Homo sapiens, UniProt Q9UBN7); conditions: read-out: IC50
T5 sequence (Q9UBN7 whole entry): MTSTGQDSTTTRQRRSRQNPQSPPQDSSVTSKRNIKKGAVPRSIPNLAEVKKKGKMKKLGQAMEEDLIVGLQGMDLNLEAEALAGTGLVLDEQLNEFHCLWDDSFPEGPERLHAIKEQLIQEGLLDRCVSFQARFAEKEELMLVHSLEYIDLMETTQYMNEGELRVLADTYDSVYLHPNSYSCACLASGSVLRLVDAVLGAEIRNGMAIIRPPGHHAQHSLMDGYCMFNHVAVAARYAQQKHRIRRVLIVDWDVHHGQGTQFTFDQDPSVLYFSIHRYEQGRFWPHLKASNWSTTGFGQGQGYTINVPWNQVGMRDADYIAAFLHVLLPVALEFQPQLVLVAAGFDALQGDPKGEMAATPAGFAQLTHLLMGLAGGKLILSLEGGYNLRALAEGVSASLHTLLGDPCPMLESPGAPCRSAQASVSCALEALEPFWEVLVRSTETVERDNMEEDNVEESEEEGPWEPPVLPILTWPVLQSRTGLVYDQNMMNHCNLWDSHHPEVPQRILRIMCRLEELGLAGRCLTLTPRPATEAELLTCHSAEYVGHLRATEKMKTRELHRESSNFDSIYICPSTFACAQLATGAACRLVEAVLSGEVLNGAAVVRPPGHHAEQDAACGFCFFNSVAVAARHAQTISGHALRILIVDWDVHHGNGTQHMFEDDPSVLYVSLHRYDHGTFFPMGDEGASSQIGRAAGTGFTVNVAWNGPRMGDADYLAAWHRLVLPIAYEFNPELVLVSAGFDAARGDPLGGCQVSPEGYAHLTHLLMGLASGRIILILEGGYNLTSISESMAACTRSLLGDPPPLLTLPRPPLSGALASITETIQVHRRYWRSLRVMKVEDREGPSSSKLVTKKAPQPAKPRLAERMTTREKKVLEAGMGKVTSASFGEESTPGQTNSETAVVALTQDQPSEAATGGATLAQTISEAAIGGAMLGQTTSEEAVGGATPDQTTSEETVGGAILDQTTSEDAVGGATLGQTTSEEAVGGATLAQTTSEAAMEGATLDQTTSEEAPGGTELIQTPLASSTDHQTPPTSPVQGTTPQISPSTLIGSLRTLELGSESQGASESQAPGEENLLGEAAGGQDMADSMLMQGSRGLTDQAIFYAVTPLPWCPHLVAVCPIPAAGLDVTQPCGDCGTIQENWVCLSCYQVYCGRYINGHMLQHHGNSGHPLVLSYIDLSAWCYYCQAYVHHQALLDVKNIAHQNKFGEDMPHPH

U-937 [11] = test: Induction of cell cycle arrest in human U-937 cells assessed as cell death at 5 uM for 48 hrs by PI staining based flow cytometric analysis; format: functional
U-937 [12] = test: Induction of cell cycle arrest in human U-937 cells assessed as accumulation of cells in pre-G1 phase at 5 uM for 48 hrs by PI staining based flow cytometric analysis; format: functional

Sequence of Histone deacetylase 3 (O15379 whole entry): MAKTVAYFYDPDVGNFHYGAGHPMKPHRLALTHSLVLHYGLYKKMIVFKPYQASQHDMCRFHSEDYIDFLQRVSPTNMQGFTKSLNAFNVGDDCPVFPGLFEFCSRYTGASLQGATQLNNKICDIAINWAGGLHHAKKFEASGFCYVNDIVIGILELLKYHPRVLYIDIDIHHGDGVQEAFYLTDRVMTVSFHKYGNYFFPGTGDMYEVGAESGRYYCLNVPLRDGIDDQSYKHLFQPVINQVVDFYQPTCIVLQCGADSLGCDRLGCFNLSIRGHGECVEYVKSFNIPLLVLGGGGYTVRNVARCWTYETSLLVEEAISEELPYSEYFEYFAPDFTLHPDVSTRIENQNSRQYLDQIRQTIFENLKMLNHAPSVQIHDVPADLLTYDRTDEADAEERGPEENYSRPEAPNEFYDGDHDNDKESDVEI
Sequence of Histone deacetylase 5 (Q9UQL6 whole entry): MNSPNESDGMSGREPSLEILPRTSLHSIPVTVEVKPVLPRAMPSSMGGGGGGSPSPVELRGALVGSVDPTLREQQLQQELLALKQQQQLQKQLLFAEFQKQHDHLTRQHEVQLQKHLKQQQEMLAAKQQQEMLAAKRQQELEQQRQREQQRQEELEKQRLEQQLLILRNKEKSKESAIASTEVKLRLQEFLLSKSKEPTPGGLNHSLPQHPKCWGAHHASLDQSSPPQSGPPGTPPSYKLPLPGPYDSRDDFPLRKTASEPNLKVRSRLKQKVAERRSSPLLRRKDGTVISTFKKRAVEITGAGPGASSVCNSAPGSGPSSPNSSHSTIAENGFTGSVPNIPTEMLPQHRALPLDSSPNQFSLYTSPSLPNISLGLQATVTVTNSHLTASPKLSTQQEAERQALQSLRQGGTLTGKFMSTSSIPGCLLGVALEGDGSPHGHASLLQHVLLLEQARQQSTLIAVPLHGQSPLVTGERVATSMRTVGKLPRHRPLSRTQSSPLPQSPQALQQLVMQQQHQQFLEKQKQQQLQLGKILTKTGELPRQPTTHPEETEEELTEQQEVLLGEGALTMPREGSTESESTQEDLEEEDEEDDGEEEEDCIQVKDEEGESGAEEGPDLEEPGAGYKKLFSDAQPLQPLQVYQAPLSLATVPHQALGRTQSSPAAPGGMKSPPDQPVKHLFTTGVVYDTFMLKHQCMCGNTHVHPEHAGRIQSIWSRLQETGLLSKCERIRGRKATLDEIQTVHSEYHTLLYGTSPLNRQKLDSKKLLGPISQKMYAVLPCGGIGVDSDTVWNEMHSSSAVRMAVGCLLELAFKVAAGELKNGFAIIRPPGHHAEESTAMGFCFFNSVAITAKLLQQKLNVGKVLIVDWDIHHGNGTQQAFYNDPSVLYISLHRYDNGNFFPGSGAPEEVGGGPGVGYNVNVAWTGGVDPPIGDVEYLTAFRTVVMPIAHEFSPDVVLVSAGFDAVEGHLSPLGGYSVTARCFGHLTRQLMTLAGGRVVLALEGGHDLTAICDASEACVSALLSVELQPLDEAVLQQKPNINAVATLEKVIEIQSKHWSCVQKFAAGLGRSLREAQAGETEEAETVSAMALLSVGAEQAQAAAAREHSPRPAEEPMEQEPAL
Sequence of Histone deacetylase 9 (Q9UKV0 whole entry): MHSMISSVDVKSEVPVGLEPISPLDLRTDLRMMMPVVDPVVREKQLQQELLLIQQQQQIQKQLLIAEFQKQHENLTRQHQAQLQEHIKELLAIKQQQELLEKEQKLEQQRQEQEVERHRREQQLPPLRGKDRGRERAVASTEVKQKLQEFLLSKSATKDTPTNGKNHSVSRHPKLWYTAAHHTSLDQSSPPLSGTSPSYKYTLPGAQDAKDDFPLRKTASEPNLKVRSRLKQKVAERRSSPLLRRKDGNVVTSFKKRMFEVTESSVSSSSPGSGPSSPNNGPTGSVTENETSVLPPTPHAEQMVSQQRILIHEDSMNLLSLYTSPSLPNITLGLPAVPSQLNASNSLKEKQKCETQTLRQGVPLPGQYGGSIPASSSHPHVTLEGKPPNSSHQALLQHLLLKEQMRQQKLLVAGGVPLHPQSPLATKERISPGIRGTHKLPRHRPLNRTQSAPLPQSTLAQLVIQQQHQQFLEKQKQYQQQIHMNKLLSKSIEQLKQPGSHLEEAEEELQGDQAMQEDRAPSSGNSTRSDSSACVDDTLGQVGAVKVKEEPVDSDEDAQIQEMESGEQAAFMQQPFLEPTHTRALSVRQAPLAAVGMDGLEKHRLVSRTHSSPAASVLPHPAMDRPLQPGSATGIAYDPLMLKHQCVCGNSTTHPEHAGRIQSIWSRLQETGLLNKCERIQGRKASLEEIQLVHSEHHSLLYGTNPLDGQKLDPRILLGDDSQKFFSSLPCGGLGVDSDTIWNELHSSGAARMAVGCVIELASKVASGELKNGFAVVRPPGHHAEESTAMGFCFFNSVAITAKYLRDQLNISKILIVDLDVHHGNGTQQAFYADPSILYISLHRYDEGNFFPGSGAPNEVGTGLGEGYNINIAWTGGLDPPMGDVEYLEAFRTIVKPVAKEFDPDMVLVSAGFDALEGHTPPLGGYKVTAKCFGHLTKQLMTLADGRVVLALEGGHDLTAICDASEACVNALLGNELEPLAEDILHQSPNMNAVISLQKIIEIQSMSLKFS
Sequence of Histone deacetylase 2 (Q92769 whole entry): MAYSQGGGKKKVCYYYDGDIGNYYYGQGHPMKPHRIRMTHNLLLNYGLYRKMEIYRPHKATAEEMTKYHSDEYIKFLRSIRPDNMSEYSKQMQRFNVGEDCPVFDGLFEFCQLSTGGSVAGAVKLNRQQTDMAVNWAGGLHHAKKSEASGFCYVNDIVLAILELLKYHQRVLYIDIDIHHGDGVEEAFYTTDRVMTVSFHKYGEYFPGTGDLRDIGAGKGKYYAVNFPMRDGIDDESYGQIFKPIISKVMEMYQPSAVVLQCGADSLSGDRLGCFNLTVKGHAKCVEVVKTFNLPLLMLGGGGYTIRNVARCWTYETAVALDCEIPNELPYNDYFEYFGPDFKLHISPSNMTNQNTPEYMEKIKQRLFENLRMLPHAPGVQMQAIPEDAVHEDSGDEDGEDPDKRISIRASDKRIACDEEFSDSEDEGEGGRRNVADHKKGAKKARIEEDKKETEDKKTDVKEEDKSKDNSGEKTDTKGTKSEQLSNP
Sequence of Histone deacetylase 1 (Q13547 whole entry): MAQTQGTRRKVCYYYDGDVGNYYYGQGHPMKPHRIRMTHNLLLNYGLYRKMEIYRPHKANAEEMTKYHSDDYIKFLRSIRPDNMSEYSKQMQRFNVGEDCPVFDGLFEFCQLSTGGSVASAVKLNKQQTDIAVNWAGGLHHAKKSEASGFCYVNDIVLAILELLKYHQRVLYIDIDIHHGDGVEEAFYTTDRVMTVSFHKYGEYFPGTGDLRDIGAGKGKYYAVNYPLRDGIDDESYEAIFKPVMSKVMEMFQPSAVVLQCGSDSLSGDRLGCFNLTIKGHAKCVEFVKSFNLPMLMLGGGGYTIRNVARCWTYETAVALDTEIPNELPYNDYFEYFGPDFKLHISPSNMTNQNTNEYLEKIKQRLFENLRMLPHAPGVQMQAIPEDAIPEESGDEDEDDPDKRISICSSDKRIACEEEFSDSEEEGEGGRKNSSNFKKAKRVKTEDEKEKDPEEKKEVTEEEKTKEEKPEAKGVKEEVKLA

O=C(/C=C/c1ccc(NC(=O)Cc2cccc3ccccc23)cn1)NO
Activity (U-937 [1]): 10%
IC50 (HL-60): 276 nM
IC50 (MV4-11): 59 nM
IC50 (Histone deacetylase 3): 39 nM
IC50 [2]: 71 nM
IC50 (U-937 [3]): 258 nM
IC50 (K562 [4]): 50 nM
IC50 (Histone deacetylase 11): 3980 nM
IC50 (Histone deacetylase 2): 156 nM
IC50 (HCT-116): 70 nM
IC50 (Histone deacetylase 8): 47 nM
IC50 (Histone deacetylase 9): 2790 nM
Ratio IC50 (K562 [5]): 10
IC50 (NB-4): 84 nM
IC50 (OCI-AML2): 379 nM
IC50 (Histone deacetylase 5): 1350 nM
IC50 (Histone deacetylase 1): 98 nM
IC50 (Kasumi 1): 66 nM
IC50 (Histone deacetylase 7): 2060 nM
IC50 (OCI-AML-3): 529 nM
IC50 (KARPAS-299): 400 nM
Activity (U-937 [6]): 40%
IC50 (A549): 320 nM
Activity (U-937 [7]): 70%
IC50 [8]: 198 nM

O=C(/C=C/c1ccc(NC(=O)C(Cc2ccccc2)c2ccccc2)cn1)NO (stereo unspecified)
Activity (U-937 [1]): 10%
Activity (U-937 [9]): 60%
IC50 (K562 [4]): 40 nM
IC50 (HCT-116): 70 nM
IC50 [10]: 11 nM
Ratio IC50 (K562 [5]): 10
Activity (U-937 [11]): 76%
Activity (U-937 [12]): 40%
Activity (U-937 [6]): 40%
IC50 (A549): 220 nM
Activity (U-937 [7]): 70%
